Assay results taken from PubChem BioAssay AID2060891 (Molecular Pharmacology Branch, DTP, NCI, 2025).

Test system: K98450-129-R-PDC complex spheroid growth, percent test/control
Assay: Anticancer human tumor K98450-129-R-PDC patient-derived colon adenocarcinoma cell line growth inhibition [RAS]
Details: for IC50: curve of first compound; for viability, T/C: stronger effect = lower value
In short: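 Multi-cell-type spheroids: tumor cells plus HUVEC endothelial cells and mesenchymal stem cells. RAS-pathway inhibitors were combined with targeted agents, each dosed in half-log steps down from clinical Cmax, or from 10 microM when Cmax was unknown.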

[1] = second compound 0.0316 µM, first compound 0.0316 µM
[2] = second compound 0.0316 µM, first compound 0.1 µM
[3] = second compound 0.0316 µM, first compound 0.316 µM
[4] = second compound 0.0316 µM, first compound 1 µM
[5] = second compound 0.0316 µM, first compound 3.16 µM
[6] = second compound 0.0316 µM, first compound 10 µM
[7] = second compound 0.1 µM, first compound 0.0316 µM
[8] = second compound 0.1 µM, first compound 0.1 µM
[9] = second compound 0.1 µM, first compound 0.316 µM
[10] = second compound 0.1 µM, first compound 1 µM
[11] = second compound 0.1 µM, first compound 3.16 µM
[12] = second compound 0.1 µM, first compound 10 µM
[13] = second compound 0.316 µM, first compound 0.0316 µM
[14] = second compound 0.316 µM, first compound 0.1 µM
[15] = second compound 0.316 µM, first compound 0.316 µM
[16] = second compound 0.316 µM, first compound 1 µM
[17] = second compound 0.316 µM, first compound 3.16 µM
[18] = second compound 0.316 µM, first compound 10 µM
[19] = second compound 1 µM, first compound 0.0316 µM
[20] = second compound 1 µM, first compound 0.1 µM
[21] = second compound 1 µM, first compound 0.316 µM
[22] = second compound 1 µM, first compound 1 µM
[23] = second compound 1 µM, first compound 3.16 µM
[24] = second compound 1 µM, first compound 10 µM
[25] = second compound 3.16 µM, first compound 0.0316 µM
[26] = second compound 3.16 µM, first compound 0.1 µM
[27] = second compound 3.16 µM, first compound 0.316 µM
[28] = second compound 3.16 µM, first compound 1 µM
[29] = second compound 3.16 µM, first compound 3.16 µM
[30] = second compound 3.16 µM, first compound 10 µM
[31] = second compound 10 µM, first compound 0.0316 µM
[32] = second compound 10 µM, first compound 0.1 µM
[33] = second compound 10 µM, first compound 0.316 µM
[34] = second compound 10 µM, first compound 1 µM
[35] = second compound 10 µM, first compound 3.16 µM
[36] = second compound 10 µM, first compound 10 µM
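Further: spheroids exposed to agents for seven days before the viability readout.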
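Wherever viability, T/C is given: luminescence used as a proxy for viable cell amount.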

## CC(=O)OC12COC1CC(O)C1(C)C(=O)C(O)C3=C(C)C(OC(=O)C(O)C(NC(=O)OC(C)(C)C)c4ccccc4)CC(O)(C(OC(=O)c4ccccc4)C21)C3(C)C (stereo not given) + C#Cc1c(F)ccc2cc(O)cc(-c3ncc4c(N5CC6CCC(C5)N6)nc(OCC56CCCN5CC(F)C6)nc4c3F)c12
Second compound 0.0316 µM
  IC50: 415 nM
Second compound 0.1 µM
  IC50: 428 nM
Second compound 0.316 µM
  IC50: 482 nM
Second compound 1 µM
  IC50: 466 nM
Second compound 3.16 µM
  IC50: 460 nM
Second compound 10 µM
  IC50: 401 nM
[1]
  viability, T/C: 105%
[2]
  viability, T/C: 98%
[3]
  viability, T/C: 54.7%
[4]
  viability, T/C: 34.7%
[5]
  viability, T/C: 33.1%
[6]
  viability, T/C: 35.2%
[7]
  viability, T/C: 109%
[8]
  viability, T/C: 103%
[9]
  viability, T/C: 54.7%
[10]
  viability, T/C: 38%
[11]
  viability, T/C: 32.8%
[12]
  viability, T/C: 34.8%
[13]
  viability, T/C: 105%
[14]
  viability, T/C: 103%
[15]
  viability, T/C: 59%
[16]
  viability, T/C: 35.5%
[17]
  viability, T/C: 32.4%
[18]
  viability, T/C: 33.4%
[19]
  viability, T/C: 101%
[20]
  viability, T/C: 101%
[21]
  viability, T/C: 57.9%
[22]
  viability, T/C: 36.6%
[23]
  viability, T/C: 32.6%
[24]
  viability, T/C: 32.1%
[25]
  viability, T/C: 93.2%
[26]
  viability, T/C: 97.1%
[27]
  viability, T/C: 57.9%
[28]
  viability, T/C: 35%
[29]
  viability, T/C: 34.2%
[30]
  viability, T/C: 31.9%
[31]
  viability, T/C: 86.1%
[32]
  viability, T/C: 87.8%
[33]
  viability, T/C: 55%
[34]
  viability, T/C: 31.9%
[35]
  viability, T/C: 30.6%
[36]
  viability, T/C: 29%

## CCC(CC)c1cc(NC2CCC(N)C2)n2nccc2n1 (stereo not given) + C#Cc1c(F)ccc2cc(O)cc(-c3ncc4c(N5CC6CCC(C5)N6)nc(OCC56CCCN5CC(F)C6)nc4c3F)c12
Second compound 0.0316 µM
  IC50: 6080 nM
Second compound 0.1 µM
  IC50: 5510 nM
Second compound 0.316 µM
  IC50: 6220 nM
Second compound 1 µM
  IC50: 5710 nM
Second compound 3.16 µM
  IC50: 5430 nM
Second compound 10 µM
  IC50: 4670 nM
[1]
  viability, T/C: 99.8%
[2]
  viability, T/C: 102%
[3]
  viability, T/C: 103%
[4]
  viability, T/C: 106%
[5]
  viability, T/C: 93.7%
[6]
  viability, T/C: 16.3%
[7]
  viability, T/C: 105%
[8]
  viability, T/C: 108%
[9]
  viability, T/C: 102%
[10]
  viability, T/C: 98.3%
[11]
  viability, T/C: 81.7%
[12]
  viability, T/C: 16.9%
[13]
  viability, T/C: 105%
[14]
  viability, T/C: 117%
[15]
  viability, T/C: 108%
[16]
  viability, T/C: 97.7%
[17]
  viability, T/C: 94.8%
[18]
  viability, T/C: 20%
[19]
  viability, T/C: 104%
[20]
  viability, T/C: 99.8%
[21]
  viability, T/C: 99.4%
[22]
  viability, T/C: 101%
[23]
  viability, T/C: 82.4%
[24]
  viability, T/C: 19.1%
[25]
  viability, T/C: 91.7%
[26]
  viability, T/C: 97.1%
[27]
  viability, T/C: 94.9%
[28]
  viability, T/C: 84.7%
[29]
  viability, T/C: 79.1%
[30]
  viability, T/C: 18.9%
[31]
  viability, T/C: 84.2%
[32]
  viability, T/C: 90.2%
[33]
  viability, T/C: 88.2%
[34]
  viability, T/C: 89.4%
[35]
  viability, T/C: 68.5%
[36]
  viability, T/C: 14.1%

## Cc1nc(N2CCC3(CC2)COC(C)C3N)c(CO)nc1Sc1ccnc(N)c1Cl (stereo not given) + C#Cc1c(F)ccc2cc(O)cc(-c3ncc4c(N5CC6CCC(C5)N6)nc(OCC56CCCN5CC(F)C6)nc4c3F)c12
Second compound 0.0316 µM
  IC50: 3010 nM
Second compound 0.1 µM
  IC50: 3130 nM
Second compound 0.316 µM
  IC50: 2240 nM
Second compound 1 µM
  IC50: 1720 nM
Second compound 3.16 µM
  IC50: 1070 nM
Second compound 10 µM
  IC50: 513 nM
[1]
  viability, T/C: 104%
[2]
  viability, T/C: 93.3%
[3]
  viability, T/C: 88.8%
[4]
  viability, T/C: 75.8%
[5]
  viability, T/C: 46.9%
[6]
  viability, T/C: 25%
[7]
  viability, T/C: 112%
[8]
  viability, T/C: 93.5%
[9]
  viability, T/C: 83.6%
[10]
  viability, T/C: 80.8%
[11]
  viability, T/C: 45.3%
[12]
  viability, T/C: 21.5%
[13]
  viability, T/C: 101%
[14]
  viability, T/C: 97.5%
[15]
  viability, T/C: 86.1%
[16]
  viability, T/C: 66.6%
[17]
  viability, T/C: 43.1%
[18]
  viability, T/C: 19.8%
[19]
  viability, T/C: 97%
[20]
  viability, T/C: 98.9%
[21]
  viability, T/C: 84%
[22]
  viability, T/C: 64.3%
[23]
  viability, T/C: 34.3%
[24]
  viability, T/C: 12.9%
[25]
  viability, T/C: 91.2%
[26]
  viability, T/C: 82%
[27]
  viability, T/C: 79.8%
[28]
  viability, T/C: 52.7%
[29]
  viability, T/C: 17.1%
[30]
  viability, T/C: 10.5%
[31]
  viability, T/C: 83.4%
[32]
  viability, T/C: 82.2%
[33]
  viability, T/C: 62.8%
[34]
  viability, T/C: 31.7%
[35]
  viability, T/C: 11.4%
[36]
  viability, T/C: 7.51%

## NC1c2ccccc2OC12CCN(c1cnc3c(N4CCCc5ncccc54)n[nH]c3n1)CC2 (stereo not given) + C#Cc1c(F)ccc2cc(O)cc(-c3ncc4c(N5CC6CCC(C5)N6)nc(OCC56CCCN5CC(F)C6)nc4c3F)c12
Second compound 0.0316 µM
  IC50: 195 nM
Second compound 0.1 µM
  IC50: 189 nM
Second compound 0.316 µM
  IC50: 165 nM
Second compound 1 µM
  IC50: 141 nM
Second compound 3.16 µM
  IC50: 75.8 nM
Second compound 10 µM
  IC50: 48 nM
[1]
  viability, T/C: 92.2%
[2]
  viability, T/C: 73.8%
[3]
  viability, T/C: 32.1%
[4]
  viability, T/C: 17.4%
[5]
  viability, T/C: 11.8%
[6]
  viability, T/C: 9.37%
[7]
  viability, T/C: 97.8%
[8]
  viability, T/C: 72.7%
[9]
  viability, T/C: 31.3%
[10]
  viability, T/C: 14%
[11]
  viability, T/C: 9.92%
[12]
  viability, T/C: 6.11%
[13]
  viability, T/C: 96.6%
[14]
  viability, T/C: 70.2%
[15]
  viability, T/C: 23.4%
[16]
  viability, T/C: 10.3%
[17]
  viability, T/C: 8.37%
[18]
  viability, T/C: 6.2%
[19]
  viability, T/C: 91.2%
[20]
  viability, T/C: 65.2%
[21]
  viability, T/C: 14.2%
[22]
  viability, T/C: 8.69%
[23]
  viability, T/C: 6.98%
[24]
  viability, T/C: 6.07%
[25]
  viability, T/C: 78.2%
[26]
  viability, T/C: 41.1%
[27]
  viability, T/C: 10.8%
[28]
  viability, T/C: 7.66%
[29]
  viability, T/C: 5.66%
[30]
  viability, T/C: 4.62%
[31]
  viability, T/C: 63.9%
[32]
  viability, T/C: 25.6%
[33]
  viability, T/C: 7.94%
[34]
  viability, T/C: 6.21%
[35]
  viability, T/C: 4.84%
[36]
  viability, T/C: 2.23%

## Nc1ccn(C2OC(CO)C(O)C2(F)F)c(=O)n1 (stereo not given) + C#Cc1c(F)ccc2cc(O)cc(-c3ncc4c(N5CC6CCC(C5)N6)nc(OCC56CCCN5CC(F)C6)nc4c3F)c12
Second compound 0.0316 µM
  IC50: 72.2 nM
Second compound 0.1 µM
  IC50: 87.7 nM
Second compound 0.316 µM
  IC50: 83.8 nM
Second compound 1 µM
  IC50: 74.2 nM
Second compound 3.16 µM
  IC50: 90.5 nM
Second compound 10 µM
  IC50: 87.5 nM
Second compound 0.0316 µM, first compound 0.00316 µM
  viability, T/C: 109%
Second compound 0.0316 µM, first compound 0.01 µM
  viability, T/C: 99.1%
[1]
  viability, T/C: 65.4%
[2]
  viability, T/C: 44.8%
[3]
  viability, T/C: 35.6%
[4]
  viability, T/C: 29.6%
Second compound 0.1 µM, first compound 0.00316 µM
  viability, T/C: 115%
Second compound 0.1 µM, first compound 0.01 µM
  viability, T/C: 106%
[7]
  viability, T/C: 73.5%
[8]
  viability, T/C: 47%
[9]
  viability, T/C: 37.8%
[10]
  viability, T/C: 29.7%
Second compound 0.316 µM, first compound 0.00316 µM
  viability, T/C: 107%
Second compound 0.316 µM, first compound 0.01 µM
  viability, T/C: 96.3%
[13]
  viability, T/C: 75.4%
[14]
  viability, T/C: 44.4%
[15]
  viability, T/C: 33.9%
[16]
  viability, T/C: 30.5%
Second compound 1 µM, first compound 0.00316 µM
  viability, T/C: 101%
Second compound 1 µM, first compound 0.01 µM
  viability, T/C: 94.7%
[19]
  viability, T/C: 68.1%
[20]
  viability, T/C: 43.3%
[21]
  viability, T/C: 38%
[22]
  viability, T/C: 31.9%
Second compound 3.16 µM, first compound 0.00316 µM
  viability, T/C: 95.7%
Second compound 3.16 µM, first compound 0.01 µM
  viability, T/C: 90%
[25]
  viability, T/C: 70.2%
[26]
  viability, T/C: 46.9%
[27]
  viability, T/C: 39.5%
[28]
  viability, T/C: 31.1%
Second compound 10 µM, first compound 0.00316 µM
  viability, T/C: 92.5%
Second compound 10 µM, first compound 0.01 µM
  viability, T/C: 87.9%
[31]
  viability, T/C: 71.6%
[32]
  viability, T/C: 46.6%
[33]
  viability, T/C: 37.2%
[34]
  viability, T/C: 32.4%
